pIC50: −log10 of the molar value. Values joined by “and” are separate entries in the source; they are usually repeats but may differ in a detail not shown here. Equal entries are not always repeated.
Columns and labels:
MCTs [1] = assay: PET displacement study in mice; assay type: in vivo, mouse; details: mice
Experimental: The biodistribution of [^18F]FACH in mice was assessed by small animal PET (Nanoscan, Mediso, Budapest, Hungary) with dynamic 60 min emission recordings, followed by T1 weighted GRE MR (TR = 15.0 ms, TE = 2.4 ms, FA = 25°) imaging for anatomical correlations and attenuation correction. The mice (n = 20) weighing 32.2 ± 2.9 g were anaesthetised with 2% isoflurane in 60% oxygen, and placed on a thermostatically heated animal bed. The animals then received i.v. injections of 0.9% saline (control), reference compound (10 mg/kg), or α-CCA-Na (25 mg/kg) ten min prior or 20 min after (displacement studies) [^18F]FACH administration (2.3–8.6 MBq, 0.5–11.2 nmol/kg). List mode PET data were binned as a series of attenuation-corrected sinogram frames (12 × 10 s, 6 × 30 s, 5 × 60 s and 10 × 300 s) and were reconstructed by Ordered Subset Expectation Maximization (OSEM3D) with four iterations, six subsets and a voxel size of 0.4 mm³ (Nucline v2.01, Mediso).
(§1) The analysis of reconstructed datasets was performed with PMOD software (v4.103, PMOD Technologies LLC, Zurich, Switzerland).

plasma protein = assay: Plasma protein binding ex vivo (ultrafiltration); assay type: in vitro ADME; details: mouse plasma, 70 min after i.v. injection
Experimental: To measure plasma protein binding in vitro, a 1 mL portion of piglet plasma was incubated with 4.9 MBq [^18F]FACH (10 µL) on a shaker (400 rpm) for 20 min at 37 °C. The plasma protein binding was also measured ex vivo in 10 µL portions of mouse plasma from retro-orbital blood samples collected 70 min after intravenous (i.v.) injection of 3.7 MBq [^18F]FACH via a tail vein. The free and bound fractions of [^18F]FACH were separated by centrifugation at room temperature (2000 g for ten minutes, Centrifree® YM-30, Ultrafiltration Device; Merck KGaA, Darmstadt, Germany). Radioactivity was measured in aliquots of ultrafiltrate and in prefiltration plasma samples, using a Wizard 2470 γ-counter (PerkinElmer LAS, Rodgau, Germany), and the free fraction in the plasma (fp) calculated from the concentration ratio.

MCTs [2] = assay: Compartmental kinetic modelling of PET data in mice; assay type: in vivo, mouse; details: for K1 / VT / k2: 1-TCM; for K1 (representative 1-TCM curve fit) / k2 (representative 1-TCM curve fit): control study, Figure S12
Experimental: Table 4 includes the results of 1-tissue-compartment kinetic modelling (1-TCM) of [^18F]FACH in the kidney cortex and the liver of the control and pre-treated mouse groups (α-CCA-Na and reference compound). […] The BPND was estimated as the ratio of [VT(control)/VT(pre-treatment)] − 1.
Kinetic analysis of reconstructed datasets was performed with PMOD software. First, image derived arterial input functions (IDIFs) were obtained from the left ventricle in mice and from an artery close to the kidney in piglet studies. IDIFs were corrected for partial volume effects, plasma fraction from hematocrit values (individually determined for each piglet directly before PET imaging; for mice set to 0.51 according to CD-1 Mouse Hematology sheet from Charles River Laboratories, 2011) and radio-metabolites (measured for piglets, and set to zero for mice). Tri-exponential metabolite-corrected fitted input functions were used for one and two tissue compartment modelling (1-TCM/2-TCM) of time activity curves (TACs) in tissue volumes of interest (VOIs). For both species the specific blood volume was set to 0.15 mL g^−1 in the kidney cortex and 0.128 mL g^−1 in the liver, according to published values.

[3] = Metabolism and renal excretion of [18F]FACH in piglets (radio-HPLC, graphical analysis)
MCTs [4] = assay type: in vivo, piglet; details: pig, in vivo
Experimental: The piglets (n = 6) were inititally anaesthetised with intramuscular injections of stresnil and ursotamin, and anaesthesia was maintained with intravenous ursotamin and midazolam, as required. The hematocrit was measured in an ear vein blood sample collected just prior to imaging. Either saline (n = 3) or 25 mg/kg α-CCA-Na (n = 3) in saline was administrated ten min before i.v. administration of [^18F]FACH (261–327 MBq, corresponding to 218–852 pmol/kg) via an ear vein. Imaging was performed with a simultaneous hybrid PET/MR system (mMR Biograph; Siemens, Erlangen, Germany) equipped with dedicated phased-array surface. PET data were reconstructed into a 128 × 128 matrix (voxel size: 1.40 × 1.40 × 2.03 mm^3) using the built-in OSEM3D algorithm with eight iterations, 21 subsets, and a 3-mm Gaussian filter. The attenuation and decay corrected dynamic sequence consisted of 32 frames as follows: 1 × 15, 11 × 30, 1 × 45, 5 × 60, 1 × 90, 5 × 120, 1 × 180, 4 × 240, 1 × 300, 2 × 360 s, whereas activity concentrations in VOIs are represented in units of SUV or percentage of injected dose (%/ID). After completing the dynamic PET recording, piglets were euthanized with an i.v. overdose of T61 (Intervet Deutschland GmbH, Unterschleißheim, Germany) and tissues were sampled for radio-metabolism studies in selected animals.
as §1
Data are shown in mean ± standard deviation (SD). Group differences were tested by Student’s t-test, with p < 0.05 designated as significant. Area Under the Curves (AUCs) and corresponding 95% confidence intervals (CI95%s) were calculated with GraphPad Prism (v.8.2) following the assumptions described by Gagnon et al..

SMCT1 = test system: SMCT1; design: method as in PMID 31017677; details: [14C]nicotinate uptake assay; read-out: IC50 towards SMCT1; cited from earlier work
[5] = design: method as in PMID 32357571; details: from dosimetry studies in piglets; cited from earlier work
[6] = Metabolism and renal excretion of [18F]FACH in mice (radio-HPLC)

kidney cortex SUV (MCTs [1]; before injection of α-CCA-Na): 3.50 ± 0.42 | blood SUV (MCTs [1]; pre-injection of α-CCA-Na): 0.74 ± 0.23 | free plasma fraction (fp) (plasma protein): 0.07 | K1 (MCTs [2]; kidney cortex, control): 0.13 ± 0.06 mL/g/min | VT (MCTs [2]; kidney cortex, control): 8.60 ± 4.55 mL/g | k2 (MCTs [2]; kidney cortex, control): 0.02 ± 0.01 min⁻¹ | K1 (2-TCM) (MCTs [2]; kidney cortex, 2-TCM, control): 0.28±0.24 ml/ccm/min | VND (2-TCM) (MCTs [2]; kidney cortex, 2-TCM, control): 1.77±2.49 ml/ccm | k2 (2-TCM) (MCTs [2]; kidney cortex, 2-TCM, control): 1.54 ± 2.43 min⁻¹ | k3 (2-TCM) (MCTs [2]; kidney cortex, 2-TCM, control): 0.77 ± 0.78 min⁻¹ | k4 (2-TCM) (MCTs [2]; kidney cortex, 2-TCM, control): 0.02 ± 0.02 min⁻¹ | K1 (representative 1-TCM curve fit) (MCTs [2]; kidney cortex): 0.16 mL/g/min | k2 (representative 1-TCM curve fit) (MCTs [2]; kidney cortex): 0.04 min⁻¹ | K1 (MCTs [2]; liver, control): 0.49 ± 0.24 mL/g/min | VT (MCTs [2]; liver, control): 6.47 ± 2.49 mL/g | k2 (MCTs [2]; liver, control): 0.08 ± 0.02 min⁻¹ | K1 (representative 1-TCM curve fit) (MCTs [2]; liver): 0.40 mL/g/min | k2 (representative 1-TCM curve fit) (MCTs [2]; liver): 0.09 min⁻¹ | apparent rate constant (k0) for [18F]FACH metabolism ([3]; piglets, control): 0.87 ± 0.34 min⁻¹ | parent radiotracer fraction in plasma ([3]; piglets, control, 60 min): 8.8 ± 4.8% | parent radiotracer fraction in plasma ([3]; piglets, control, five min): 42 ± 13% | intact radiotracer in urine ([3]; piglets, urine 60 min p.i.): no intact radiotracer was detectable | parent fraction of [18F]FACH in kidney cortex ([3]; two control piglets, 60 min p.i.): 50.5% and 48.0% | peak TAC SUV kidney cortex (MCTs [4]): 15.3 ± 2.5 | peak TAC SUV kidney medulla (MCTs [4]): 66.1 ± 27.7 | peak TAC SUV liver (MCTs [4]): 13.2 ± 2.7 | radioactivity in bladder/urine (renal excretion) ([6]; mice, 60 min p.i., control): 0.51 ± 0.39 %ID | intact [18F]FACH in plasma ([6]; mouse plasma, 30 min p.i.): More than 99% | [18F]FACH (parent) in urine ([6]; mouse urine): < 5%
Compound: CCCN(CCC[18F])c1ccc(/C=C(\C#N)C(=O)O)c(OC)c1 [[^18F]FACH, (E)-2-cyano-3-{4-[(3-[^18F]fluoropropyl)(propyl)amino]-2-methoxyphenyl}acrylic acid]
BPND (MCTs [2]; liver, (VT(control)/VT(pre-treated)) − 1): 0.04 | pIC50 (SMCT1): 4.11 | predicted effective radiation dose for humans [5]: about 2 mSv/100 MBq
